{"source": "paper PMC7228089", "about": "“Odiparcil, a potential glycosaminoglycans clearance therapy in mucopolysaccharidosis VI—Evidence from in vitro and in vivo models” (PLoS ONE, 2020)", "key": {"[1]": {"tested_on": "Bovine aortic endothelial cells", "test": "Secretion of [35S]-labelled sulphated GAG into culture medium of BAE cells", "format": "cell-based", "details": "for Mean CSGAG (%) of total secreted sulphated GAG / Mean HSGAG (%) of total secreted sulphated GAG: BAE cell culture media; for Mean CSGAG (%) of total secreted sulphated GAG: CSase ABC degradation; for Mean HSGAG (%) of total secreted sulphated GAG: Heparitinase II degradation; for Maximum stimulation of HSGAG secretion (fold over the base level): at 10 μM odiparcil", "description": "GAG secreted into cell culture supernatant were analysed in Bovine aortic endothelial cells (ECACC 92010601), cultured in 6-well plates and incubated for 24 h in the presence of [^35S] sodium sulphate ([…]; 0.1% final concentration of DMSO). The culture supernatants were recovered and the unincorporated [^35S] was then removed by gel filtration on Sephadex G25 columns, the GAG being eluted in the column exclusion fraction (V0). A solution of cetylpyridinium chloride (0.1% final concentration) was added to the eluent in order to precipitate the GAG for 24 h at room temperature. The samples were then centrifuged and the supernatant was removed. The precipitate obtained was re-suspended in 2 M magnesium chloride and the GAG were precipitated with 5 volumes of 95% ethanol. After centrifugation, the alcoholic precipitates were re-suspended in 0.9% sodium chloride and then the radioactivity was measured.\nIn order to sort the GAG produced in the supernatants from cells in culture, the re-suspended alcoholic precipitates were treated with chondroitinase ABC (Proteus vulgaris) in a proportion of 0.5 mU/μL, for 3 h at 37°C. After inactivation of the enzyme for 3 min at 100°C, the undigested GAG were precipitated with 5 volumes of 95% ethanol, overnight at 4°C. After centrifugation, the alcoholic precipitates were re-suspended in 0.9% sodium chloride and then the radioactivity was measured on an aliquot fraction after addition of scintillation fluid in counting vials. GAG of heparan sulphate type were treated with heparinase II (Flavobacterium heparinum) in a proportion of 4 mU/μl, for 12 h at 30°C. After inactivation of the enzyme for 3 min at 100°C, the undigested GAG were precipitated with 5 volumes of 95% ethanol, overnight at 4°C. After centrifugation, the alcoholic precipitates were re-suspended in 0.9% sodium chloride and then the radioactivity was measured on an aliquot fraction after addition of scintillation fluid in counting vials."}, "Arsb^- mice": {"tested_on": "Arsb^- mice", "test": "Urinary excretion of total sulphated GAG (Blyscan) in mice treated with odiparcil", "format": "in vivo", "description": "MPS VI model nonsense mutation Arsb^m1J homozygous mice (referred to as Arsb^- throughout the manuscript) and WT littermates were obtained from internal breeding of stock mice derived from The Jackson Laboratory strain No: 005598 (C57BL/6J-Arsb^m1J/GrsrJ). Genotyping and Arsb^m1J mutation identification were performed according to the protocol provided by The Jackson Laboratory. Each study group contained mix of male and female: 6 animals in disease progression studies and between 8 and 12 animals in odiparcil treatment studies.\nHousing conditions. The animals were housed in groups of 3–10 (for mice) or 2 (for rats) in polypropylene cages (floor area = 1032 cm^2) under standard conditions: room temperature (22 ± 2°C), hygrometry (55 ± 10%), light/dark cycle (12h/12h), air replacement (15–20 volumes/hour), water and food ad libitum. […]\nTotal sulphated GAG in cell culture media were determined colorimetrically by DMMB method (described in [31] adapted for cell culture media). Total sulphated GAG in snap frozen liver and kidney samples and urine were measured using Blyscan assay from Biocolor Company (UK) following manufacturer’s instructions. […] For GAG in tissues quantification, individual pieces (approximately 50 mg) were removed from the frozen samples (liver and kidney), weighed and digested in 1 mL papain solution prepared according to the Blyscan kit protocol. […]"}, "[2]": {"details": "more than 30 clinical trials, total of 1900 subjects; earlier development as antithrombotic agent; cited from earlier work"}, "[3]": {"details": "BAE cells, 24 h, [35S] sulphate"}}, "data": [{"smiles": "Cc1cc(=O)oc2cc(O[C@@H]3SC[C@@H](O)[C@H](O)[C@H]3O)ccc12", "note": "[Odiparcil, 4-methyl-7-(5-thio-β-D-xylopyranosyloxy)-2 H-chromen-2-one]", "values": [{"measurement": "Mean CSGAG (%) of total secreted sulphated GAG", "setting": "[1]; odiparcil 0.1 µM", "value": 78.5, "unit": "%"}, {"measurement": "Mean HSGAG (%) of total secreted sulphated GAG", "setting": "[1]; odiparcil 0.1 µM", "value": 34.5, "unit": "%"}, {"measurement": "Mean CSGAG (%) of total secreted sulphated GAG", "setting": "[1]; odiparcil 0.3 µM", "value": 83.5, "unit": "%"}, {"measurement": "Mean HSGAG (%) of total secreted sulphated GAG", "setting": "[1]; odiparcil 0.3 µM", "value": 28.0, "unit": "%"}, {"measurement": "Mean CSGAG (%) of total secreted sulphated GAG", "setting": "[1]; odiparcil 1 µM", "value": 83.9, "unit": "%"}, {"measurement": "Mean HSGAG (%) of total secreted sulphated GAG", "setting": "[1]; odiparcil 1 µM", "value": 16.0, "unit": "%"}, {"measurement": "Mean CSGAG (%) of total secreted sulphated GAG", "setting": "[1]; odiparcil 3 µM", "value": 82.5, "unit": "%"}, {"measurement": "Mean HSGAG (%) of total secreted sulphated GAG", "setting": "[1]; odiparcil 3 µM", "value": 15.0, "unit": "%"}, {"measurement": "Mean CSGAG (%) of total secreted sulphated GAG", "setting": "[1]; odiparcil 10 µM", "value": 73.5, "unit": "%"}, {"measurement": "Mean HSGAG (%) of total secreted sulphated GAG", "setting": "[1]; odiparcil 10 µM", "value": 19.5, "unit": "%"}, {"measurement": "Maximum CS-like GAGs (fold stimulation over the base level)", "setting": "[1]; [3]", "value": 12.2, "unit": "fold"}, {"measurement": "Maximum stimulation of total GAG secretion (fold over the base level)", "setting": "[1]; BAE cells, 24 h, [35S] sulphate, achieved with 3 μM odiparcil", "value": 10.7, "unit": "fold"}, {"measurement": "Maximum stimulation of HSGAG secretion (fold over the base level)", "setting": "[1]; [3]", "value": 4.92, "unit": "fold"}, {"measurement": "Maximum stimulation of HSGAG secretion (fold over the base level)", "setting": "[1]; BAE cells, 24 h, [35S] sulphate, listed as odiparcil", "value": 4.9, "unit": "fold"}, {"measurement": "Urinary GAG after discontinuation of the treatment", "setting": "Arsb^- mice; Arsb^- mice, two weeks after discontinuation", "value": "no elevated GAG were detected on top of the basal level"}, {"measurement": "Total sulphated GAG in urine", "setting": "Arsb^- mice; wild type and Arsb^- mice, oral 1.5 or 4.5 g/kg diet, after 3 and 6 months, early and advanced disease protocols", "value": "elevation of total GAG in urine"}, {"measurement": "Safety and tolerability in clinical trials", "setting": "[2]", "value": "good safety and tolerability"}]}]}
